# Results taken from patent publication US20260048046A1, “METHOD FOR IMPROVING GROWTH PERFORMANCE IN FEEDLOT CATTLE” (Elanco US Inc., priority 2022, published 2026).
# Assays:
# beef cattle [1] = experiment: 91-d study: growth performance of beef cattle fed lubabegron; assay type: in vivo; details: for ADG / DMI / G:F / Unshrunk final BW: 91-d treatment, LS mean
# Source text: A randomized complete block design was used to evaluate the effect of lubabegron (LUB) on performance over a 91-d period using 336 beef cattle (BW=453±34.5 kg) housed in cattle pen enclosures (CPE). Four LUB treatments were included in the study based on dose: 0.0 (control or CON), 1.38, 5.5, and 22.0 (mg·kg^−1 of DM). Because there was a limited number of CPE (n=8), three sequential cycles (blocks) were required to generate 6 replicates of each dose×sex combination. As such, 112 cattle (56 steers and 56 heifers) were housed concurrently within each cycle across the eight CPE (14 cattle/CPE), with each dose×sex combination being represented by a single CPE/cycle. To assure different frame sizes of cattle were represented, cattle in cycles one and three were large-frame Continental crossbreds, whereas cattle in cycle 2 were medium-frame British crossbreds.
# Treatment administration for the three cycles occurred from April through July, August through November, and December through March of 2014 and 2015, respectively. Four weeks before beginning treatments for each cycle (day −28), up to 145 cattle were sourced from a common origin and transported to the study site at the University of California-Davis to be group-housed in single-sexed outdoor pens. The presence of growth-promoting implants was assessed, and any preexisting implants were excised before shipment to the study site to ensure they had been implant-free for a minimum of 28 d before treatments began on day 0. No additional implants were used in these cattle, and they were considered nonimplanted.
# On day −8, cattle were screened for abnormal health conditions by a veterinarian and ranked by BW to identify the 56 eligible cattle within each sex that provided the narrowest weight range. The following day (day −7), the 56 cattle selected for study enrollment. within each sex were grouped into sets of four consecutively weight-ranked cattle. Cattle were then randomly allocated to their respective treatment within each weight group and transferred into the CPE. The CPE were randomly assigned to sex and dose treatment before each cycle, and all study personnel were blinded to treatments throughout the duration of the study. All cattle were fed the negative control basal finishing diet (Table 1) for 1 week (days −7 to −1) after being placed into the CPE to allow for acclimation before beginning treatments.
# Treatments began on day 0 and cattle in each CPE received their respective treatment for 91 d. Emission measurements began at 0800 hours on day 0 and ended at 0500 hours on day 91, immediately preceding cattle removal from the CPE for final BW measurements and transportation to the commercial slaughter facility.
# Cattle had been fed a concentrate-based diet in a commercial setting before arrival at the study site on day −28, at which point they were provided ad libitum access to water and re-acclimated to a concentrate-based diet using a step-up program involving two intermediate diets based on increasing concentrate levels (˜60% and 70%, respectively) and varying proportions of alfalfa and wheat hay. On day −14, cattle were transitioned onto a finishing diet (Table 1) formulated to meet, or exceed, the minimum nutrient requirements for growing beef cattle (NRC, 2000) that was then fed for the remainder of the study. A nonmedicated supplement (i.e., type B feed with a ground corn carrier) was included as 2.5% of the diet DM during acclimation for all cattle from day −14 until the beginning of treatment administration. On day 0, one of four type B supplements were added to the basal diet to provide either 0.0 (CON), 1.38, 5.5, or 22.0 mg·kg^−1 (DM basis) LUB in a type C (i.e., final feed) medicated feed. All type C feeds containing the appropriate concentrations of LUB or CON were prepared at the study site by adding the same proportions of Type B supplement, water, and basal ration in a rotary mixer wagon (Roto-Mix Forage Express, Dodge City, KS). […]
# beef cattle [2] = experiment: 91-d study: Warner-Bratzler shear force of striploin steaks; assay type: in vivo; details: 91-d treatment, LS mean, shear force after 14-d aging
# Description: Following chill, striploins (LM) were collected from three randomly selected cattle/CPE and shipped to the University of Illinois Meat Science Laboratory for Warner-Bratzler shear force (WBSF) determination. At the laboratory, the anterior end of the striploin was fabricated into 2.54-cm steaks, vacuum packaged, and aged at 4° C. until 14-d postmortem. Steaks were frozen after aging, and then thawed at 4° C. for 24 h before being cooked on a Farberware Open Hearth electric broiler (Farberware, Bronx, NY). Copper-constantan Type-T thermocouples (Omega Engineering. Stamford, CT) connected to a digital scanning thermometer (Barnant Co., Barington, IL) were used to monitor internal temperature, and each steak was flipped a single time when the internal temperature reached 35° C. The steaks were removed from the grill when a temperature of 70° C. was achieved and cooled to ˜25° C. before six cores (1.25 cm diameter) were removed parallel to muscle fiber orientation. Cores were sheared perpendicular to the muscle fibers using a Texture Analyzer TA.HD Plus (Stable Microsystems, Godalming. UK) equipped with a WBSF attachment, and the peak WBSF measurement was averaged over all 6 cores to obtain a single shear force measurement (kg of force) for each steak.
structure (smiles),measurement,setting,value
"CC(C)(Cc1ccc(Oc2ncccc2C#N)cc1)NC[C@H](O)COc1ccccc1-c1cccs1 [LUB, 2-{4-[2-({(2S)-2-Hydroxy-3-[2-(2-thienyl)phenoxy]propyl}amino)-2-methylpropyl]phenoxy}nicotinonitrile]",Effect of LUB treatment on final BW,"beef cattle [1]; 91 d, all LUB doses vs CON, P=0.257",not altered
same,Effect of LUB on DMI,"beef cattle [1]; 91 d, all LUB doses vs CON, P=0.585",no effect
same,ADG increase vs. CON,"beef cattle [1]; LUB 1.38 mg·kg^−1, 91 d",11.8%
same,G:F increase compared with CON,"beef cattle [1]; LUB 1.38 mg·kg^−1, 91 d",8.3%
same,ADG,beef cattle [1]; LUB 1.38 mg·kg^−1 DM,1.42 kg
same,DMI,beef cattle [1]; LUB 1.38 mg·kg^−1 DM,9.2 kg
same,G:F,beef cattle [1]; LUB 1.38 mg·kg^−1 DM,0.156 kg:kg
same,Unshrunk final BW,beef cattle [1]; LUB 1.38 mg·kg^−1 DM,583 kg
same,ADG increase vs. CON,"beef cattle [1]; LUB 5.5 mg·kg^−1, 91 d",9.4%
same,G:F increase compared with CON,"beef cattle [1]; LUB 5.5 mg·kg^−1, 91 d",9.7%
same,ADG,beef cattle [1]; LUB 5.5 mg·kg^−1 DM,1.35 kg
same,DMI,beef cattle [1]; LUB 5.5 mg·kg^−1 DM,8.8 kg
same,G:F,beef cattle [1]; LUB 5.5 mg·kg^−1 DM,0.158 kg:kg
same,Unshrunk final BW,beef cattle [1]; LUB 5.5 mg·kg^−1 DM,582 kg
same,ADG increase vs. CON,"beef cattle [1]; LUB 22.0 mg·kg^−1, 91 d",12.6%
same,G:F increase compared with CON,"beef cattle [1]; LUB 22.0 mg·kg^−1, 91 d",13.2%
same,ADG,beef cattle [1]; LUB 22.0 mg·kg^−1 DM,1.43 kg
same,DMI,beef cattle [1]; LUB 22.0 mg·kg^−1 DM,8.8 kg
same,G:F,beef cattle [1]; LUB 22.0 mg·kg^−1 DM,0.163 kg:kg
same,Unshrunk final BW,beef cattle [1]; LUB 22.0 mg·kg^−1 DM,582 kg
same,14-dWBSP,beef cattle [2]; LUB 1.38 mg·kg^−1 DM,2.79 kg
same,14-dWBSP,beef cattle [2]; LUB 5.5 mg·kg^−1 DM,2.92 kg
same,14-dWBSP,beef cattle [2]; LUB 22.0 mg·kg^−1 DM,2.75 kg
